One test deals with CCRF-HSB2. Nature of the test: ATP-based luminescence cell viability (CellTiter Glo), drug response score, CCRF-HSB2. An excerpt: (§1) As part of a screen, a drug could be screened at different concentrations ranging from a lowest concentration to a highest concentration. In such a scenario, multiple data structures may be obtained by the screening platform 210. […] With these multiple data structures, the analysis module 218 can generate a dose-response curve that describes the magnitude of the response of the biological target, as a function of exposure to different concentrations of the drug. Further, the analysis module 218 can calculate a metric that is indicative of the response of the biological target. In the event that the biological target is one of multiple biological targets that are introduced to the pools of drugs, the metric can be used by the screening platform 210 to better understand the relative magnitude of responses. One example of a metric is drug-response score (“DRS”). DRS can be calculated as a continuous function of multiple parameters of the non-linear dose-response curve, including the slope at the half-maximal effective concentration (also called “EC50”) and the top and bottom asymptotes of the dose-response curve. DRS can be calculated as follows: […]
(§2) where y is a continuous function of the variable dose x, a is the maximal response (i.e., the top asymptote of the curve), b is the slope of the curve, c is the IC50 (i.e., half-maximal inhibitory concentration), and d is the minimal response (i.e., the bottom asymptote of the curve). Other examples of metrics include those output by sigmoidal and Hill slide functions that, like DRS, incorporate multiple aspects of the dose-response curve into a continuous function.
(§3) Total cell viability was measured for each cancer cell line using an Adenosine TriPhosphate (“ATP”) assay, and more specifically an ATP-based luminescence assay (i.e., CellTiter Glo). Each cancer drug was screened at multiple concentrations ranging from one nanomolar (nM) to ten micromolar (UM) in order to generate a dose-response curve and calculate a drug response score (“DRS”) for each cancer cell line. The DRS was calculated as a continuous function of multiple parameters of the non-linear dose-response curve, including the slope at the half-maximal effective concentration (also called “EC50”) and the top and bottom asymptotes of the dose-response curve. […] After total cell viability was measured and DRS was calculated, the DRS of each cancer cell line in the pool was deconvolved for each cancer drug.
(§4) DRS for these anchor cell lines are bolded and italicized. Anchors can be identified based on frequency of the cell lines in pools with high DRS versus low DRS. At a high level, an anchor is predicted to be the cell line with the lowest individual DRS. In order to deconvolute individual cell line DRS values from pool DRS values, the anchor can start with an assumed DRS value of zero. Each pool can then be expressed as a polynomial of variables (cell lines in the pool) and constants (DRS value of the pool). The DRS value of each cell line can then be solved for using the anchor value and overlapping polynomial expressions. When multiple values are calculated for the final target solved from the polynomials, then the anchor has a non-zero value that can be determined based on the difference in the calculated value of the final target.
(§5) Each pool represented a co-culture of three cell lines (“Target Compression”).

The next test deals with NALM-6. Nature of the test: ATP-based luminescence cell viability (CellTiter Glo), drug response score, NALM-6. To be noted: for DRS from deconvolution: NALM-6, Target compression, 7 Pick 3 pools; for drug response score (DRS): NALM-6, screened individually (Compress: None).
Excerpt: as §1, §2, §3, §4, §5

Test [1] relates to library of cancer cell lines. Briefly: Hit profile of cancer drugs across library of cancer cell lines (cell viability). In kind it is cell-based. Conditions: across cancer cell lines screened individually. The protocol:
Total cell viability was measured for each cancer cell line using an Adenosine TriPhosphate (“ATP”) assay, and more specifically an ATP-based luminescence assay (i.e., CellTiter Glo). Each cancer drug was screened at multiple concentrations ranging from one nanomolar (nM) to ten micromolar (UM) in order to generate a dose-response curve and calculate a drug response score (“DRS”) for each cancer cell line. The DRS was calculated as a continuous function of multiple parameters of the non-linear dose-response curve, including the slope at the half-maximal effective concentration (also called “EC50”) and the top and bottom asymptotes of the dose-response curve. […]
Table I includes several examples of cancer drugs and their DRSs across each cancer cell line in the aforementioned experiment.

Test [2] concerns pooled samples of three cancer cell lines. Nature of the test: Cell viability (CellTiter Glo) of compressed pooled samples of three individually cultured cell lines (Sample Compression). In kind it is cell-based. The protocol:
as §3
A benefit of the compression methodology is the ability to compress members of a library into pools for co-culture screens or compress individual cell cultures into pooled samples for measurement. For example, leukemia cell lines can interact in co-cultures through their immune receptors, which may result in cell activation, cytokine production, and other effects that may impact drug sensitivity and resistance. […] Instead of creating compressed target cells in pooled co-cultures, compression was instead used to enable individual cultures of each cell line, with pooled measurements to reduce reagents and instrument time. With individual cultures and sample compression, it was possible to accurately deconvolute DRS for each drug on each cell line, as shown in Table IV.

In a further test the test system is REH. Briefly: ATP-based luminescence cell viability (CellTiter Glo), drug response score, REH. Set-up: scale not given here. Conditions: for DRS from deconvolution: Sample compression, 5 Pick 3 pools; for drug response score (DRS): screened individually (Compress: None).
The subject of a further test is SUP-B15. Briefly: ATP-based luminescence cell viability (CellTiter Glo), drug response score, SUP-B15. Further details: scale not given here. Conditions: SUP-B15, screened individually (Compress: None).
[3] abbreviates: CCRF-HSB2, Sample compression, 5 Pick 3 pools.
The mark [4] stands for this setting: CCRF-HSB2, Target compression, 5 Pick 3 pools.
Setting [5] is: CCRF-HSB2, Target compression, 6 Pick 3 pools.
The mark [6] stands for this setting: CCRF-HSB2, Target compression, 7 Pick 3 pools.
Where [7] appears, read: 5 Pick 3, Pool 1 (REH, SUP-B15, CCRF-CFM).
Where [8] appears, read: 5 Pick 3, Pool 2 (SUP-B15, CCRF-HSB2, MOLT-4).
Setting [9] is: 5 Pick 3, Pool 3 (SUP-B15, CCRF-CFM, CCRF-HSB2).
Where [10] appears, read: 5 Pick 3, Pool 4 (REH, CCRF-CFM, MOLT-4).
Setting [11] is: 5 Pick 3, Pool 5 (REH, CCRF-HSB2, MOLT-4).

Take `Cc1[nH]c2ccccc2c1CCNCc1ccc(/C=C/C(=O)NO)cc1` [Panobinostat]: the DRS from deconvolution in the test with CCRF-HSB2 (setting [3]) turned out to be 18.63; in the test with CCRF-HSB2 (setting [4]), 19.75; in the test with CCRF-HSB2 (setting [5]), 17.30; in the test on CCRF-HSB2 (setting [6]) it was 17.26; in the test with NALM-6, 15.85; in the test on REH, 12.17. Besides, the “drug response score (DRS)” value came out at 16.30 with NALM-6, 12.60 with REH and 22.40 in the test on SUP-B15. In addition, in test [1], the “Hits (hit profile)” value is recorded as “All”. For the same molecule, the DRS of pool in test [2] (setting [7]) turned out to be 18.56; in test [2] (setting [8]) it was 19.17; in test [2] (setting [9]), 20.34; in test [2] (setting [10]) it was 14.93; in test [2] (setting [11]), 15.87.

As to `COc1c(OCCCN2CCOCC2)ccc2c1N=C(NC(=O)c1cnc(N)nc1)N1CCN=C21` [Copanlisib], the DRS from deconvolution in the test with CCRF-HSB2 (setting [3]) stood at 7.35; with CCRF-HSB2 (setting [4]), 7.82; in the test with CCRF-HSB2 (setting [5]) it was 7.97; with CCRF-HSB2 (setting [6]) it was 7.10; in the test with NALM-6 it was 13.74; in the test with REH, 12.99. The “drug response score (DRS)” value is given as 13.14 with NALM-6, 13.24 in the test with REH and 2.84 in the test on SUP-B15. In addition, in test [1], the “Hits (hit profile)” value is reported as “Multiple”. In addition, the DRS of pool is 10.47 in test [2] (setting [7]); 6.63 in test [2] (setting [8]); 8.39 in test [2] (setting [9]); 13.65 in test [2] (setting [10]); 10.96 in test [2] (setting [11]).

As to `N#Cc1ccnc(N2C(=O)CC[C@H]2C(=O)N(c2cncc(F)c2)[C@H](C(=O)NC2CC(F)(F)C2)c2ccccc2Cl)c1` [Ivosidenib], the DRS from deconvolution with CCRF-HSB2 (setting [3]) worked out at 1.52; in the test on CCRF-HSB2 (setting [4]) it was 1.74; in the test on CCRF-HSB2 (setting [5]) it was 1.53; in the test with CCRF-HSB2 (setting [6]) it was 1.61; in the test with NALM-6, 0.00; in the test with REH it was 0.48. The “drug response score (DRS)” value stood at 0.00 in the test on NALM-6, 0.60 with REH and 0.00 with SUP-B15. Moreover, the “Hits (hit profile)” value in test [1] is on record as “None”. In addition, the DRS of pool in test [2] (setting [7]) is recorded as 0.52; in test [2] (setting [8]), 0.55; in test [2] (setting [9]), 0.82; in test [2] (setting [10]), 0.51; in test [2] (setting [11]), 0.74.

In the case of `CC1(C)CCC(CN2CCN(c3ccc(C(=O)NS(=O)(=O)c4ccc(NCC5CCOCC5)c([N+](=O)[O-])c4)c(Oc4cnc5[nH]ccc5c4)c3)CC2)=C(c2ccc(Cl)cc2)C1` [Venetoclax], the DRS from deconvolution with CCRF-HSB2 (setting [3]) is reported as 0.00; with CCRF-HSB2 (setting [4]) it was 0.00; in the test with CCRF-HSB2 (setting [5]), 0.00; in the test on CCRF-HSB2 (setting [6]), 0.00; in the test with NALM-6, 9.54; in the test on REH it was 1.15. In addition, the “drug response score (DRS)” value is reported as 7.30 with NALM-6, 3.80 with REH and 37.40 with SUP-B15. Moreover, the “Hits (hit profile)” value in test [1] is on record as “One”. Besides, the DRS of pool in test [2] (setting [7]) turned out to be 13.99; in test [2] (setting [8]) it was 13.60; in test [2] (setting [9]), 12.57; in test [2] (setting [10]), 2.91; in test [2] (setting [11]), 2.41.

Source of the values: patent publication US20260378560A1, “APPROACHES TO DESIGNING AND PERFORMING COMPRESSED BIOLOGICAL EXPERIMENTS AND SYSTEMS FOR IMPLEMENTING THE SAME” (EXVIVO LABS INC., priority 2023, published 2026).
